Laboratory results taken from US6127357A, “N-((phenyl, benzodioxinyl or N-heteroarylpiperazinyl)alkyl)-N-(N-heteroaryl)substituted carboxamides” (John Wyeth & Brother, Ltd., priority 1991, dated 2000).

Columns and labels:
5-HT1A receptor [1] = molecular target: T1, 5-HT1A receptor (Cavia porcellus, UniProt A0A286Y074); assay: 5-HT1A receptor antagonism: antagonism of 5-carboxamidotryptamine in the guinea-pig ileum in vitro
T1 construct: guinea-pig ileum in vitro; from tissue; host or cells: guinea-pig ileum
T1 sequence (A0A286Y074 1-421): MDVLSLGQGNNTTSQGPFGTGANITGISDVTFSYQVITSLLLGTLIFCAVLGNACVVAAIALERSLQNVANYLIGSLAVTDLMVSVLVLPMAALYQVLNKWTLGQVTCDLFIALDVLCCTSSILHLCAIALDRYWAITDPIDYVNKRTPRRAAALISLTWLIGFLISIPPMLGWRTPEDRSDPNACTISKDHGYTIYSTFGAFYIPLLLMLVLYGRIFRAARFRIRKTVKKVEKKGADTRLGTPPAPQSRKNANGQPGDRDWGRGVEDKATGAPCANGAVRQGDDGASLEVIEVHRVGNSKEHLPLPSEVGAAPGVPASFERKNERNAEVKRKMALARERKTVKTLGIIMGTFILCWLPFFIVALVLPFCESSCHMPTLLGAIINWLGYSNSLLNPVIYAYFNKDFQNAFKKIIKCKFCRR
Protocol: The compounds are tested for 5-HT1A receptor antagonism activity in a test involving the antagonism of 5-carboxamidotryptamine in the guinea-pig ileum in vitro (based upon the procedure of Fozard et al, Br J Pharmac, 1985, 86, 601P).

5-HT1A receptor [2] = molecular target: T2, 5-HT1A receptor (Rattus norvegicus, UniProt P19327); assay: 5-HT1A receptor binding activity in rat hippocampal membrane homogenate
T2 construct: rat hippocampal membrane homogenate; from tissue; host or cells: rat hippocampus membrane homogenate
T2 sequence (P19327 1-422): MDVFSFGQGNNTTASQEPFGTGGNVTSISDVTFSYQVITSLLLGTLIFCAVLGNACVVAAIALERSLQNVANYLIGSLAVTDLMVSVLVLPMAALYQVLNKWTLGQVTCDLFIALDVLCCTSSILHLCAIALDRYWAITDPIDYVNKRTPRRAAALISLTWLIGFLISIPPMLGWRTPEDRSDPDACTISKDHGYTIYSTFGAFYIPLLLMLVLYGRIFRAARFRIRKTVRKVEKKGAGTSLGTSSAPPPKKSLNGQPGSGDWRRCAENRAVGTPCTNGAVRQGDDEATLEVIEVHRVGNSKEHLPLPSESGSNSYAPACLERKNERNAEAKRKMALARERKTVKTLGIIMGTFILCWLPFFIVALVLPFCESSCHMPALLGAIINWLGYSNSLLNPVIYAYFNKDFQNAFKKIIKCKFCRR
Protocol: The compounds of the invention were tested for 5-HT1A receptor binding activity in rat hippocampal membrane homogenate by the method of B S Alexander and M D Wood, J Pharm Pharmacol, 1988, 40, 888-891.

Question: For `COc1ccccc1N1CCN(CCN(C(=O)NC2CCCCC2)c2ccccn2)CC1` [Example 4, N-Cyclohexyl-N-(2-(1-(4-(2-methoxyphenyl)piperazinyl))ethyl)-N-(2-pyridinyl)urea], which Kb (5-HT1A receptor [1]; read-out: pA2, 5-HT1A receptor antagonism (converted)) is on record?
Answer: 15.8 nM

Question: What about the IC50 (5-HT1A receptor [2]) of the same compound?
Answer: 5.8 nM

Question: Which results are given for `O=C(C1CCCCC1)N(CCN1CCN(c2cccc3c2OCCO3)CC1)c1ccccn1` [Example 17, N-(2-(1-(4-(2,3-Dihydro-1,4-benzodioxin-5-yl)piperazinyl))ethyl)-N-(2-pyridinyl)cyclohexanecarboxamide]?
Answer: pA2, 5-HT1A receptor antagonism (5-HT1A receptor [1]): 9.8; IC50 (5-HT1A receptor [2]): 3 nM
